One test concerns Cys-P1-tagged GPCR. Description: peptide-templated labeling of Cys-P1-tagged GPCRs in live HEK293 cells. The test is classed as cell-based. The settings on record: n=3; for fluorescent labeling: Cys-P1-ETAR-GFP, 200 nM probe.
The next test has as its system Cys-P3-tagged GPCR. As to the kind of experiment: peptide-templated labeling of Cys-P3-tagged GPCRs in live HEK293 cells. The test is classed as cell-based. The settings on record: n=3; for fluorescent labeling: 200 nM probe.
A further test relates to ETAR. The settings on record: competitive antagonist; ref [36]; cited from earlier work.
The next test has as its system ETBR. The conditions noted are these: competitive antagonist; ref [36]; cited from earlier work.
Another test relates to ETBR-GFP. Description: Ca2+ flux, COS-7, ETBR-GFP co-transfected with other GPCRs. The format is cell-based. The conditions noted are these: mock+sitaxentan vs mock+vehicle (no ETAR expression).

As to “KIAQLKE KNAALKE KNQQLKE KIQALKY [TAMRA‐P2, 6‐carboxytetramethyl‐rhodamine (TAMRA)‐P2]”, the fluorescent labeling entry in the test with Cys-P1-tagged GPCR is on record as “successfully labeled”. In addition, the “labeling with complementary probe” value in the test with Cys-P1-tagged GPCR (Cys-P1-ETBR-GFP) is “Rapid TAMRA staining within 5 min”. In the test with Cys-P3-tagged GPCR (Cys-P3-ETAR-GFP with non-complementary probe), the cross-reactivity labeling entry is recorded as “no successful TAMRA labeling was detectable”.

In the case of “KIAQLKQ KIQALKQ ENQQLEE ENAALEY [TAMRA‐P4]”, in the test with Cys-P1-tagged GPCR (Cys-P1-ETBR-GFP with non-complementary probe), the cross-reactivity labeling result is listed as “no successful TAMRA labeling was detectable”. Moreover, in the test with Cys-P3-tagged GPCR (Cys-P3-ETAR-GFP), the fluorescent labeling result is on record as “successfully labeled” and the “labeling with complementary probe” value is “Rapid TAMRA staining within 5 min”.

With TAMRA‐MPAA‐GSGSG, the fluorescent labeling entry with Cys-P1-tagged GPCR and in the test with Cys-P3-tagged GPCR (Cys-P3-ETAR-GFP) was “no labeling of GFP‐positive cells was detectable” each time.

On to `Cc1cc2c(cc1CC(=O)c1sccc1S(=O)(=O)Nc1onc(C)c1Cl)OCO2` [sitaxentan], for which the IC50 in the test with ETAR was roughly 1 nM; with ETBR, roughly 10 µM. The “effect on ET-1 efficacy and potency at ETBR” value with ETBR-GFP was “No differences in both ligand efficacy and potency”.

(Values after PMC9298254 (Chembiochem, 2021).)
